Series [1] relates to Staphylococcus aureus ATCC6538. In words: Zone of inhibition (ZOI) assay. It is filed as cell-based. The settings on record: for antimicrobial activity, qualitative: ZOI assay, S. aureus ATCC6538. How it is done:
The antimicrobial activity of the antimicrobial silver s-triazine compounds was verified by standard zone of inhibition (ZOI) assay known to those skilled in the art. Briefly, in this assay, samples were placed on plates with proprietary agar formula (similar to Mueller Hinton Agar (MHA)) that were inoculated with bacteria and incubated at 37° C. overnight. If antimicrobial activity in the sample was present, it formed a clear zone around the edges. As negative control, the samples without the silver active compound were used. For primary screening of antimicrobial activity, the gram positive bacteria Staphylococcus aureus ATCC6538 was employed in the assay. To examine broad spectrum antimicrobial activity, various different types of organisms including gram negative Pseudomonas aeruginosa ATCC9027, Methicillin-Resistance Staphylococcus aureus (MRSA) and Vancomycin-Resistant Enterococci (VRE) could be employed. In investigating the broad spectrum activity, the ZOI assay is performed slightly differently. Instead of laying the samples on plates individually inoculated with different types of bacteria, the bacterial inoculums are streaked as parallel lines on one plate. After streaking the inoculum linearly, the samples are deposited as a continuous bead string in perpendicular direction to the streak lines. Evidence of antimicrobial activity in the sample is seen in the form of interruptions on both sides of the edges of the sample string.

The nature of series [2]: Discoloration on direct sunlight exposure. It counts as physicochemical. The note with it: for direct sunlight exposure withstood before any sign of discoloration: undiluted aqueous suspension, ~5500 ppm silver. On the procedure: Silver-PDT powder (˜0.027 g) was transferred to the gel and hand-mixed to uniformity with a spatula to obtain clear to hazy gel. […] For DMCA, the tube was kept at ˜25° C. overnight for reaction completion. […] Considering that the amount of silver in the undiluted suspensions was ˜5500 ppm, the discoloration resistance can be considered extraordinary. In contrast, the undiluted suspension of Ag-PDT withstood 0.5 h of sunlight exposure before discoloration was visible. […] A suspension of Ag-MIC was prepared according to Example 13. […] A 2″×2″ piece of cotton gauze was soaked in the clear solution, blotted with paper towel to remove excess and dried at 55° C. for 0.25 to 0.5 h. In the same clear solution prepared separately, a filter paper strip was immersed, shaken and then dried at 55° C. for 0.25 h-0.5 h. Both substrates with silver-MIC were exposed to direct sunlight. […] Thus, in both instances following substrate impregnation, Ag-MIC still maintained robust light discoloration resistance. […] On a clean glass slide, a small volume (˜0.25 ml) was spread with a transfer pipet and left in an oven at 55° C. to dry for 0.5 h. The theoretical amount of silver in the dried coating was estimated at ˜2700 ppm. […] Such coating composition could be useful in providing antimicrobial surfaces. […] Similar sized piece of each dressing was pouched in foil and steam sterilized. After cooling to room temperature the samples were examined for discoloration. None was observed. […] Even after 4 h of direct sunlight exposure, no discoloration of the Ag-PDT impregnated paper was observed. The approximate theoretical amount of silver in the impregnated paper strip was ˜8700 ppm.

The conditions of series [3]: water, 25° C.
A short description of series [4]: Discoloration on table lamp light exposure. It counts as physicochemical. The note with it: for time without discoloration under table lamp light: clear solution with ammonium hydroxide, ~5000 ppm silver, lamp at 12″. How it is done:
Stock solutions (0.1M) of monosodium salts of DMCA, EIC and MIC were prepared. […] To accelerate anion exchange between sodium and silver cations, heating of liquids was carried out in microwave between ˜50° to 55° C. The tube contents were cooled and then to each tube neat ammonium hydroxide (0.1 ml) was added which caused the suspensions to clear for all three compounds. […] The theoretical content of silver in the clear solutions was ˜5000 ppm. To a 100 ml PP cup with stir bar, deionized water was added (13.2 ml).

Series [5] is described as follows: Discoloration on heat exposure (55° C. / steam sterilization). It is filed as physicochemical. The settings on record: 550 ppm silver. How it is done:
The sterilization of any samples (devices or compositions) comprising antimicrobial silver s-triazine compounds was carried out by steam sterilization. By subjecting test samples to steam sterilization, one can ascertain the ability of the antimicrobial silver s-triazine compounds to withstand thermal stresses. […] Thus, the test samples experienced nearly 3.5 h of hostile temperature condition. […] Silver-PDT powder (˜0.027 g) was transferred to the gel and hand-mixed to uniformity with a spatula to obtain clear to hazy gel. […] Similar sized piece of each dressing was pouched in foil and steam sterilized. After cooling to room temperature the samples were examined for discoloration. None was observed.

[6] abbreviates: Alginate sheet, Example 17, ~4500 ppm silver.

By aqueous solubility is commonly meant the dissolved amount per volume that the medium holds. A lower aqueous solubility goes with a poorly soluble substance.

Compound `CCn1c(=O)[n-]c(=O)[nH]c1=O.[Ag+]` [Ag-EIC] gave a Zone width in series [1] (setting [6]) of 8.5 mm. Also, the “antimicrobial activity, qualitative” value in series [1] was “strong activity”. Moreover, the “direct sunlight exposure withstood before any sign of discoloration” value in series [2] is 1.5 h. This compound also displayed an aqueous solubility in series [3] of 16.5 µg/mL. The “time without discoloration under table lamp light” value in series [4] stood at 96 h.
With `Cn1c(=O)[n-]c(=O)[nH]c1=O.[Ag+]` [Ag-MIC], the Zone width in series [1] (setting [6]) amounted to 9.5 mm; in series [1] (Cotton gauze, Example 14), 5.5 mm; in series [1] (Filter paper, Example 14), 8.0 mm; in series [1] (Gel, Example 15, 550 ppm silver) it was 2.5 mm. In series [1], the “antimicrobial activity, qualitative” value was “strong activity”. In addition, the “direct sunlight exposure without discoloration” value in series [2] (impregnated cotton gauze, Example 14) is listed as above 3 h. Further, the “direct sunlight exposure after which faint cream color registered” value in series [2] (impregnated filter paper strip, Example 14) came out at 1.5 h. In addition, in series [2], the “direct sunlight exposure withstood before any sign of discoloration” value came out at 1.5 h. For the same compound, the aqueous solubility in series [3] came out at 48 µg/mL. Moreover, the “gel discoloration under table lamp light” value in series [4] (Laponite gel, 550 ppm silver, overnight) is “did not discolor”. In addition, in series [4], the “time without discoloration under table lamp light” value turned out to be 72 h. In addition, the “gel change at 55° C.” value in series [5] (Laponite gel, 4 weeks) is given as “practically unchanged”.
The compound `O=c1nc(-c2ccccc2)[nH]c(=O)[n-]1.[Ag+]` [Ag-PDT] came in with a Zone width in series [1] (setting [6]) of 5.5 mm. The “antimicrobial activity, qualitative” value in series [1] was “strong activity”. For the same compound, the “gel discoloration in direct sunlight” value in series [2] (carboxymethyl cellulose gel, 550 ppm silver, PP tubes) is given as “no discoloration of gel was seen for up to an hour”. Besides, the “discoloration as suspension temperature increased during photo-exposure” value in series [2] (diluted suspension ~1350 ppm silver, temperature ~50° C.) is “no discoloration was seen”. In addition, the “direct sunlight exposure without discoloration” value in series [2] (impregnated thin paper strip, ~8700 ppm silver) is above 4 h. Besides, the “direct sunlight exposure required before signs of discoloration” value in series [2] (suspension diluted with deionized water, ~1350 ppm silver, PP tube) is given as “over 4 h”. Moreover, the “direct sunlight exposure withstood before any sign of discoloration” value in series [2] was found to be 0.5 h. Also, in series [5] (carboxymethyl cellulose gel, short term exposure), the “gel discoloration at 55° C.” value is “did not show any gel discoloration”.

Values taken from patent publication US10189798B2, “Antimicrobial compounds, methods of making the same and articles comprising them” (MEDICAL TECHNOLOGY RESEARCH INC, priority 2014, dated 2019).
